Test results reported in patent US20240131046A1, “ANTI-VIRAL AGENT” (NATIONAL UNIVERSITY CORPORATION HOKKAIDO UNIVERSITY, priority 2021, published 2024).

System: SARS-CoV-2 (strain WK-521) and various variants thereof
Format: cell-based

Nc1ncnc2c1c(CO)cn2[C@@H]1O[C@H](CO)[C@@H](O)[C@H]1O [HUP1108, 5-hydroxymethyltubercidin]
virus amount released from infected cells / antiviral activity against variant strains: has antiviral activity against various variant strains of SARS-CoV-2
